Source: EPA's ToxRefDB 2

Key:
mouse [1] = conditions: Carcinogenicity, cd1, Oral, Feed, dose end: 18 month, group: systemic
dog [2] = conditions: Chronic toxicity; beagle; Oral; Feed; dose end: 53 week; group: systemic; systemic / pathology microscopic / stomach / [other] + systemic / pathology microscopic / stomach / inflammation
rat [3] = conditions: Combined chronic toxicity/carcinogenicity, wistar, Oral, Feed, dose end: 24 month, group: systemic
dog [4] = conditions: Subchronic oral toxicity in nonrodent, beagle, Feed, dose end: 13 week, group: systemic, systemic / clinical chemistry / alanine aminotransferase (alt/sgpt) / alanine aminotransferase (alt/sgpt) + systemic / clinical chemistry / …
rat [5] = conditions: Multigenerational reproductive toxicity study, sprague dawley, Oral, Feed, dose end: 2 generation
rat [6] = conditions: Prenatal developmental toxicity study, sprague dawley, Oral, Gavage/Intubation, dose end: 15 GD
dog [7] = conditions: Subchronic oral toxicity in nonrodent, beagle, Feed, dose end: 228 day, group: systemic, systemic / pathology microscopic / kidney / eosinophilic focus + systemic / pathology microscopic / kidney / pigmentation + systemic / …
mouse [8] = conditions: Combined chronic toxicity/carcinogenicity, other, Oral, Feed, dose end: 95 week, group: systemic
dog [9] = conditions: Subchronic oral toxicity in nonrodent, beagle, Feed, dose end: 184 day, group: systemic, systemic / clinical chemistry / [other] / [other] + systemic / clinical chemistry / aspartate aminotransferase (ast/sgot) / aspartate …
dog [10] = conditions: Chronic toxicity; beagle; Oral; Feed; dose end: 52 week; group: systemic; systemic / clinical chemistry / creatinine / creatinine + systemic / clinical chemistry / urea nitrogen / urea nitrogen
rat [11] = conditions: Subchronic oral toxicity in rodents, fischer, Feed, dose end: 13 week, group: systemic
[12] = systemic / clinical chemistry / chloride / chloride + systemic / hematology / erythrocyte (rbc) count differential / erythrocyte (rbc) + …
[13] = systemic / clinical chemistry / urea nitrogen / urea + systemic / clinical chemistry / phosphorus / phosphorus
[14] = group: offspring, developmental / developmental malformation / bone / exencephaly + developmental / developmental malformation / eye / ablepharia
[15] = group: offspring, developmental / developmental malformation / bone / exencephaly + developmental / developmental malformation / eye / ablepharia + …
[16] = group: parental, systemic / pathology microscopic / kidney / degeneration
[17] = group: parental, systemic / pathology microscopic / kidney / degeneration + systemic / in life observation / body weight / body weight + systemic / in life …
[18] = group: reproductive, reproductive / offspring survival early / litter size / litter size
[19] = group: developmental, developmental / developmental malformation / bone / brachycephaly + developmental / developmental malformation / bone / delayed ossification…
[20] = group: maternal, systemic / in life observation / clinical signs / [other] + systemic / in life observation / clinical signs / alopecia + systemic / in life …
[21] = systemic / pathology microscopic / kidney / degeneration + systemic / hematology / platelet / platelet + systemic / in life observation / …

## COC(=O)c1ccc(CNS(C)(=O)=O)cc1S(=O)(=O)NC(=O)Nc1nc(OC)cc(OC)n1 [Mesosulfuron-methyl]
Mouse [1]; [12]
  LOAEL: > 1070 mg/kg/day
  NEL: 10.6 mg/kg/day
  NOAEL: ≥ 1070 mg/kg/day
Mouse [1]; systemic / clinical chemistry / chloride / chloride + systemic / hematology / leukocyte (wbc) count differential / leukocyte (wbc)
  LEL: 103 mg/kg/day
Dog [2]
  LEL: 574 mg/kg/day
  LOAEL: 574 mg/kg/day
  NEL: 155 mg/kg/day
  NOAEL: 155 mg/kg/day
Rat [3]; systemic / clinical chemistry / urea nitrogen / urea
  LEL: 73.8 mg/kg/day
Rat [3]; [13]
  LOAEL: > 764 mg/kg/day
  NEL: 7.46 mg/kg/day
  NOAEL: ≥ 764 mg/kg/day
Dog [4]
  LEL: 648 mg/kg/day
  LOAEL: > 648 mg/kg/day
  NEL: 348 mg/kg/day
  NOAEL: ≥ 648 mg/kg/day

## O=C(O)COc1nc(Cl)c(Cl)cc1Cl [Triclopyr]
Rat [5]; [14]
  LEL: 25 mg/kg/day
  LOAEL: 25 mg/kg/day
Rat [5]; [15]
  NEL: 2 mg/kg/day
  NOAEL: 2 mg/kg/day
Rat [5]; [16]
  LEL: 25 mg/kg/day
  LOAEL: 25 mg/kg/day
Rat [5]; [17]
  NEL: 2 mg/kg/day
  NOAEL: 2 mg/kg/day
Rat [5]; [18]
  LEL: 250 mg/kg/day
  LOAEL: > 250 mg/kg/day
  NEL: 25 mg/kg/day
  NOAEL: ≥ 250 mg/kg/day
Rat [6]; [19]
  LEL: 200 mg/kg/day
  LOAEL: 200 mg/kg/day
  NEL: 100 mg/kg/day
  NOAEL: 100 mg/kg/day
Rat [6]; [20]
  LEL: 50 mg/kg/day
  LOAEL: 50 mg/kg/day
  NEL: < 50 mg/kg/day
  NOAEL: < 50 mg/kg/day
Dog [7]
  LEL: 5 mg/kg/day
  LOAEL: 5 mg/kg/day
  NEL: < 5 mg/kg/day
  NOAEL: < 5 mg/kg/day
Mouse [8]; systemic / in life observation / body weight / body weight + systemic / urinalysis / protein / protein + systemic / urinalysis / specific …
  NEL: 2.5 mg/kg/day
Mouse [8]; systemic / organ weight / kidney / absolute + systemic / organ weight / pituitary gland / absolute
  NOAEL: 12.5 mg/kg/day
Mouse [8]; systemic / organ weight / kidney / absolute + systemic / organ weight / pituitary gland / absolute + systemic / in life observation / body …
  LOAEL: 62.5 mg/kg/day
Mouse [8]; systemic / urinalysis / protein / protein + systemic / clinical chemistry / urea nitrogen / urea nitrogen + systemic / pathology gross / …
  LEL: 12.5 mg/kg/day
Dog [9]
  LEL: 2.5 mg/kg/day
  LOAEL: 2.5 mg/kg/day
  NEL: 0.5 mg/kg/day
  NOAEL: 0.5 mg/kg/day
Dog [10]
  LEL: 2.5 mg/kg/day
  LOAEL: 2.5 mg/kg/day
  NEL: 0.5 mg/kg/day
  NOAEL: 0.5 mg/kg/day
Rat [11]; systemic / pathology microscopic / kidney / degeneration
  LOAEL: 20 mg/kg/day
Rat [11]; [21]
  NEL: 5 mg/kg/day
  NOAEL: 5 mg/kg/day
Rat [11]; systemic / pathology microscopic / kidney / degeneration + systemic / in life observation / body weight / body weight + systemic / in life …
  LEL: 20 mg/kg/day
